Measurements: publication PMC7026418, “The kinase polypharmacology landscape of clinical PARP inhibitors” (Scientific Reports, 2020)
Read-outs that look alike come from different tables or passages of the source. One block for each compound: values may come before it.

Assays:
Assay in all cases: biochemical
Set-up in all cases: DiscoveRx KINOMEscan active site-directed competition binding; percent of control kinase bound to immobilised ligand
[1] = target: T1, ABL1(Q252H)-nonphosphorylated (Homo sapiens, UniProt P00519, Q252H)
T1 construct: nonphosphorylated

[2] = target: T2, CDC2L5 (Homo sapiens, UniProt Q14004)
T2 construct: gene CDK13

[3] = target: CDK4 (Homo sapiens, UniProt P11802)
[4] = target: T3, ERK5 (Homo sapiens, UniProt Q13164)
T3 construct: gene MAPK7

[5] = target: ERN1 (Homo sapiens, UniProt O75460)
[6] = target: T4, IKK-alpha (Homo sapiens, UniProt O15111)
T4 construct: gene CHUK
T4 sequence (O15111 1-745): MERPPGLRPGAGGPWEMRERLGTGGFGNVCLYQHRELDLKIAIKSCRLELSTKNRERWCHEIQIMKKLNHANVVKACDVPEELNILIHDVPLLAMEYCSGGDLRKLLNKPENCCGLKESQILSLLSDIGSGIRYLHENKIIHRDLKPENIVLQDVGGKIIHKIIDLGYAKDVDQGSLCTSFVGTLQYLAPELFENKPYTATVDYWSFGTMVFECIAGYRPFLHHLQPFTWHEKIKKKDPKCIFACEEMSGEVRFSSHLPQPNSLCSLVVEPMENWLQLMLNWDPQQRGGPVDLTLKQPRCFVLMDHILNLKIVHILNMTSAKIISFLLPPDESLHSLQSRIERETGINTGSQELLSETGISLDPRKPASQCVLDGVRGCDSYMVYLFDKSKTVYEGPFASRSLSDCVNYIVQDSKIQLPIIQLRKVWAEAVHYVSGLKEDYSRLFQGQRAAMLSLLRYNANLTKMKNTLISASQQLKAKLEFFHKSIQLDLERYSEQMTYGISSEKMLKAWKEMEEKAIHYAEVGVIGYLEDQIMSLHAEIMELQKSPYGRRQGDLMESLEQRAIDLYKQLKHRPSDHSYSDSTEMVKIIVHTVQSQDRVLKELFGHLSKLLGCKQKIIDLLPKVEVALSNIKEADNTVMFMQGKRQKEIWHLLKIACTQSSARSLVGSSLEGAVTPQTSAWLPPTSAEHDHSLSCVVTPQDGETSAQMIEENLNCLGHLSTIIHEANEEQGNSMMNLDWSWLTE

[7] = target: T5, JAK2(JH1domain-catalytic) (Homo sapiens, UniProt O60674)
T5 construct: JH1domain-catalytic

[8] = target: T6, MEK5 (Homo sapiens, UniProt Q13163)
T6 construct: gene MAP2K5
T6 sequence (Q13163 1-448): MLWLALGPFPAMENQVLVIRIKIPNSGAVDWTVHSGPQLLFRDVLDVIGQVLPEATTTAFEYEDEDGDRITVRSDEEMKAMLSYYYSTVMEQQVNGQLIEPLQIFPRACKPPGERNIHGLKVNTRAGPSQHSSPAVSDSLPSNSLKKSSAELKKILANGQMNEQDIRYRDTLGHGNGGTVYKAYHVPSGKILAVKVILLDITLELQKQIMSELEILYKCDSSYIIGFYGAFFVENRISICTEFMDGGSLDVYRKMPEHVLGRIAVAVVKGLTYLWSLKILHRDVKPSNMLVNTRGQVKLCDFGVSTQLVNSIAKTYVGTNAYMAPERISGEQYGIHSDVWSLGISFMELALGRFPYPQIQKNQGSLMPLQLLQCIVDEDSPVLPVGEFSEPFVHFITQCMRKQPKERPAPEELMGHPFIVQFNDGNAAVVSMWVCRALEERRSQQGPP

[9] = target: MELK (Homo sapiens, UniProt Q14680)
[10] = target: T7, MST2 (Homo sapiens, UniProt Q13188)
T7 construct: gene STK3
T7 sequence (Q13188 1-491): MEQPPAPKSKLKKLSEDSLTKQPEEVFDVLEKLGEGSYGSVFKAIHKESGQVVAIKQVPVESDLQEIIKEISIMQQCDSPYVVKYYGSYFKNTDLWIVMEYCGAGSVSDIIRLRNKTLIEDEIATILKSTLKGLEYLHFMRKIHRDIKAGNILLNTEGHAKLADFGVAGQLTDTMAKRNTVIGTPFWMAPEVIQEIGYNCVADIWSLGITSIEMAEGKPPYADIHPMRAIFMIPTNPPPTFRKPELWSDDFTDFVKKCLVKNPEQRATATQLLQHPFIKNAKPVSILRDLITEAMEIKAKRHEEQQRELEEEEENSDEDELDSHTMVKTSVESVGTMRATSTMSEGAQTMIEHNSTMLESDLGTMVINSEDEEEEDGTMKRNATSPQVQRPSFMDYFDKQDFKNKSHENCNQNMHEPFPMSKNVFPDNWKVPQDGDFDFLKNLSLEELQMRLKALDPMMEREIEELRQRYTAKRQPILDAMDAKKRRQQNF

[11] = target: PDGFRA (Homo sapiens, UniProt P16234)
[12] = target: T8, TRKA (Homo sapiens, UniProt P04629)
T8 construct: gene NTRK1

[13] = read-out: Niraparib (MK-4827) / %Ctrl @ 10000nM
[14] = read-out: Rucaparib / %Ctrl @ 10000nM, binding competition, % of control
[15] = read-out: Olaparib / %Ctrl @ 10000nM
[16] = read-out: Talazoparib (BMN 673) / %Ctrl @ 10000nM

T8 sequence (P04629 whole entry): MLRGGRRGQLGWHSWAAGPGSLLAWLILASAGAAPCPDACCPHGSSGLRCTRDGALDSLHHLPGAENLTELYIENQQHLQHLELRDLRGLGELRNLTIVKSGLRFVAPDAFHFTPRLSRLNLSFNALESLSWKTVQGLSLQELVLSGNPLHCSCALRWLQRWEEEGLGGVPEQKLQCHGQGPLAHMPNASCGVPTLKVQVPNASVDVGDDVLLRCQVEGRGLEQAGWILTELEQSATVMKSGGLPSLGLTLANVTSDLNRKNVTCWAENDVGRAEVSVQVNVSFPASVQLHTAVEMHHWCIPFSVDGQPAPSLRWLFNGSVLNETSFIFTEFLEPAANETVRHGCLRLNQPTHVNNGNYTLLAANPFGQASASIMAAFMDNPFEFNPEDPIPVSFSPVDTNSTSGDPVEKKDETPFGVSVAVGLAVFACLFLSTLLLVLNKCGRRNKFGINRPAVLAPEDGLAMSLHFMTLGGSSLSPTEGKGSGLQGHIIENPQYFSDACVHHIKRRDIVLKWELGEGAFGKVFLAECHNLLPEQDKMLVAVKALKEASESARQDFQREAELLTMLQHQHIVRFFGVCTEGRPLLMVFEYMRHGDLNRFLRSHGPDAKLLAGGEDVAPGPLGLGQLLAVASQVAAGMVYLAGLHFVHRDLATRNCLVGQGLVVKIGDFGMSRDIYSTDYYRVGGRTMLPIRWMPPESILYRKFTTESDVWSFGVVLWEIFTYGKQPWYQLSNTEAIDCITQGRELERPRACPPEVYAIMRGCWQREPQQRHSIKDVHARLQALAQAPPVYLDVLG
T2 sequence (Q14004 whole entry): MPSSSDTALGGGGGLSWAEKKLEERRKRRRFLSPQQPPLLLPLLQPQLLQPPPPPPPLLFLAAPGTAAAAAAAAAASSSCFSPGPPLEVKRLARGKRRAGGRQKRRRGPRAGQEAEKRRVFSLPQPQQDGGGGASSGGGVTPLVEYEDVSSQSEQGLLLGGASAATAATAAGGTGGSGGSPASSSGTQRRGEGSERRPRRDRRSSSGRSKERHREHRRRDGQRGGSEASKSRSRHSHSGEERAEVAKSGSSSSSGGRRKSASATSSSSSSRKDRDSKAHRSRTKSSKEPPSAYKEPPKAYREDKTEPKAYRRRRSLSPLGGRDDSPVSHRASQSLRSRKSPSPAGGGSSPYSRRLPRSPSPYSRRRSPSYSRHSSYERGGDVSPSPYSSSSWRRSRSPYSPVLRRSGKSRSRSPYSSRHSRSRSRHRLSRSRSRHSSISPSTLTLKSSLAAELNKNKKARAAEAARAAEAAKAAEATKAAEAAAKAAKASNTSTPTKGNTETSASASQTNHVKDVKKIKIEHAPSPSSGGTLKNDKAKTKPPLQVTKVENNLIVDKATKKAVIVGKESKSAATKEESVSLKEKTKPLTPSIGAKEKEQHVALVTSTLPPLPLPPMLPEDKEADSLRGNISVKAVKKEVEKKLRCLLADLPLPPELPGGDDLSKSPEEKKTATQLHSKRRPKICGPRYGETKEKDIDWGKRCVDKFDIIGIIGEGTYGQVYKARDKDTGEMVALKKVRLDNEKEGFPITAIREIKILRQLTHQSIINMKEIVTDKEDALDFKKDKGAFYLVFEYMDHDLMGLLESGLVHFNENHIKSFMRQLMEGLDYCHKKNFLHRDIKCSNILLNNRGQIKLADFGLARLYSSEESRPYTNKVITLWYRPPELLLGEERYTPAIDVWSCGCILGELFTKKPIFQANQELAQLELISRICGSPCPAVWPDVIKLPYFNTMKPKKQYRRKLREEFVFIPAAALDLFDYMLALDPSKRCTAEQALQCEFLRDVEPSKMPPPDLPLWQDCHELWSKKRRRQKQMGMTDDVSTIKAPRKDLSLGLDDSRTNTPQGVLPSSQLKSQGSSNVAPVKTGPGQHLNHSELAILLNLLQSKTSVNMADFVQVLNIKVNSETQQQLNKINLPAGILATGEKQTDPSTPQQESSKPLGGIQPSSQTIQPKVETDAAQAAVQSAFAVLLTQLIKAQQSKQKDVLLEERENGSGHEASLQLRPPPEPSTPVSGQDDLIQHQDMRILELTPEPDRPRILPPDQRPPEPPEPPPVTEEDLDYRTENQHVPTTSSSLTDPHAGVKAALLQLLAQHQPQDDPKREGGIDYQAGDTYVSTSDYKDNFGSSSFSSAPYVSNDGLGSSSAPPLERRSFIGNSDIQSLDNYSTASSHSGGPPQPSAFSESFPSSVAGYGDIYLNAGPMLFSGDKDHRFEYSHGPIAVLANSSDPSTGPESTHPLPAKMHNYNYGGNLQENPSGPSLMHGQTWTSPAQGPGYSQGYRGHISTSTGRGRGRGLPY
Sequence of CDK4 (P11802 whole entry): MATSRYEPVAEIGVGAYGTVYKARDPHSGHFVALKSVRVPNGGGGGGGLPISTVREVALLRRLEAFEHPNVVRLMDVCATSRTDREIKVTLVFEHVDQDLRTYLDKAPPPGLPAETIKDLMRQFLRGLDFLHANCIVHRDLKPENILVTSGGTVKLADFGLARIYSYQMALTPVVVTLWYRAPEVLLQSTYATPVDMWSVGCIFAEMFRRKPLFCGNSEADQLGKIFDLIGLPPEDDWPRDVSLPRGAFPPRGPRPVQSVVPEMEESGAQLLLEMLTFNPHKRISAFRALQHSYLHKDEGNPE
Sequence of MELK (Q14680 whole entry): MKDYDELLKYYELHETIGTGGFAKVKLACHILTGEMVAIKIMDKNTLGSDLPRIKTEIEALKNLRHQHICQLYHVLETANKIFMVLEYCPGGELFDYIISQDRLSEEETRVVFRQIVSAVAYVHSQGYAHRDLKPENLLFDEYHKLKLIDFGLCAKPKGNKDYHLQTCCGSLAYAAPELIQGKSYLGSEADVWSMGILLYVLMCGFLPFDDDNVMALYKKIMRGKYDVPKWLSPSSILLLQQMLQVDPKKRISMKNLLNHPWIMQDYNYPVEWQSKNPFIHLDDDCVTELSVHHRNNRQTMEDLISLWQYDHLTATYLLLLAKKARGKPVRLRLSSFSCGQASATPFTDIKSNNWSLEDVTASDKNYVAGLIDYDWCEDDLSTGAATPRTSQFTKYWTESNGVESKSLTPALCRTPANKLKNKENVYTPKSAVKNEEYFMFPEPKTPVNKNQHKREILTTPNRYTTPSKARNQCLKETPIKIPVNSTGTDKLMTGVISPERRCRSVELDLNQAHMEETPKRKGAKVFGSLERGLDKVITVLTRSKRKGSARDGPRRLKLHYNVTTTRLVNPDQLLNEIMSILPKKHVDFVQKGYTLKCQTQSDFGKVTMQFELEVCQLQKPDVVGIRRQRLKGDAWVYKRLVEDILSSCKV
Sequence of ERN1 (O75460 whole entry): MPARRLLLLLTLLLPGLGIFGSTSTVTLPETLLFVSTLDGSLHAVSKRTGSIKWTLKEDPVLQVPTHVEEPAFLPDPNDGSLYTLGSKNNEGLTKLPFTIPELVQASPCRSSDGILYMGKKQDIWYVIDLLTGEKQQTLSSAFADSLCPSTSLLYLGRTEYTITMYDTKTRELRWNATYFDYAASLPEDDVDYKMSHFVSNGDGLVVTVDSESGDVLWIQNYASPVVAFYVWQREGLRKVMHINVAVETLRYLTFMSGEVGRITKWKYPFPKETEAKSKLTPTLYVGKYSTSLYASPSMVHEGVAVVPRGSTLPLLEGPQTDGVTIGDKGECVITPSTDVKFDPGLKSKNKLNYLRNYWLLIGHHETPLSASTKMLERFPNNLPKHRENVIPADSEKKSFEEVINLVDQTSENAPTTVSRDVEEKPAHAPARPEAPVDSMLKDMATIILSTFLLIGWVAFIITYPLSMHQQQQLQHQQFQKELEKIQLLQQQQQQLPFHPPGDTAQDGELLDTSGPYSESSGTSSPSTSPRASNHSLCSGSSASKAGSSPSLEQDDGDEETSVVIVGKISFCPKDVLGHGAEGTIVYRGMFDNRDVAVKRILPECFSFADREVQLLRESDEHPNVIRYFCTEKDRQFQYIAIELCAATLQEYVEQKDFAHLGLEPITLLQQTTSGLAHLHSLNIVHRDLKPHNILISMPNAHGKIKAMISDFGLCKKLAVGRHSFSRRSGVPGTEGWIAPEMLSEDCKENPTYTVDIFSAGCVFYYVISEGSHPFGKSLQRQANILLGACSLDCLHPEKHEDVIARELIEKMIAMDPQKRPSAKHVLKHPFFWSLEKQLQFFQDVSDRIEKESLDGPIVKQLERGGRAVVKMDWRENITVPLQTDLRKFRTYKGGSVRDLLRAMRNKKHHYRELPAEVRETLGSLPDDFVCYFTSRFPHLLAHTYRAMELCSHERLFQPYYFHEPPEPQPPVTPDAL
T3 sequence (Q13164 whole entry): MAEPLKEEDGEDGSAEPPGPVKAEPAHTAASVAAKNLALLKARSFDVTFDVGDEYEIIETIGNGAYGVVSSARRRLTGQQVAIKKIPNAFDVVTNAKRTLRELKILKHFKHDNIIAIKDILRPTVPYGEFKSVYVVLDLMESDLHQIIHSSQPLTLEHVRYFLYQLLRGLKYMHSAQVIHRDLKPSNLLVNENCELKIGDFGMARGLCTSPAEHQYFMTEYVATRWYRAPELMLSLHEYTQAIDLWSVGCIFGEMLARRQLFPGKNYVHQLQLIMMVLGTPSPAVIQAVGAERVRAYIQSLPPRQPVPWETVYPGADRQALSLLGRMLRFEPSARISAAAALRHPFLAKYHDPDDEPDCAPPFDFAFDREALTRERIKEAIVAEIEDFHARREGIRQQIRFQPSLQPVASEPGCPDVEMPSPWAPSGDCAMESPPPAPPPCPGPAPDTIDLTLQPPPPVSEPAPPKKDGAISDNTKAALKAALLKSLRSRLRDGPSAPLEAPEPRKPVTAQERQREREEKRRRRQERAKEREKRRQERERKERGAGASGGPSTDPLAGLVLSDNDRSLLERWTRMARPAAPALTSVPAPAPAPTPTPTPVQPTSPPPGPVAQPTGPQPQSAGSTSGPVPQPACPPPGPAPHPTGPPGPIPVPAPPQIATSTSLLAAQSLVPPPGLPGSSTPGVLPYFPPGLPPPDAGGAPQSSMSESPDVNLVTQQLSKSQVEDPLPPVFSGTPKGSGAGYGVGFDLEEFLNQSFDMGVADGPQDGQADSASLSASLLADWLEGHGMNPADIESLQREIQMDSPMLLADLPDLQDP

SMILES: NC(=O)c1cccc2cn(-c3ccc([C@@H]4CCCNC4)cc3)nc12 [Niraparib]
percent of control binding at 10 µM [1, 13]: 58%
percent of control binding at 10 µM [2, 13]: 100%
percent of control binding at 10 µM [3, 13]: 100%
percent of control binding at 10 µM [4, 13]: 100%
percent of control binding at 10 µM [5, 13]: 100%
percent of control binding at 10 µM [6, 13]: 100%
percent of control binding at 10 µM [7, 13]: 82%
percent of control binding at 10 µM [8, 13]: 66%
percent of control binding at 10 µM [9, 13]: 70%
percent of control binding at 10 µM [10, 13]: 100%
percent of control binding at 10 µM [11, 13]: 69%
percent of control binding at 10 µM [12, 13]: 99%

percent of control binding at 10 µM [1, 14]: 62%
percent of control binding at 10 µM [2, 14]: 98%
percent of control binding at 10 µM [3, 14]: 94%
percent of control binding at 10 µM [4, 14]: 100%
percent of control binding at 10 µM [5, 14]: 75%
percent of control binding at 10 µM [6, 14]: 42%
percent of control binding at 10 µM [7, 14]: 70%
percent of control binding at 10 µM [8, 14]: 70%
percent of control binding at 10 µM [9, 14]: 76%
percent of control binding at 10 µM [10, 14]: 76%
percent of control binding at 10 µM [11, 14]: 53%
percent of control binding at 10 µM [12, 14]: 74%
SMILES: CNCc1ccc(-c2[nH]c3cc(F)cc4c3c2CCNC4=O)cc1 [Rucaparib]

percent of control binding at 10 µM [1, 15]: 98%
percent of control binding at 10 µM [2, 15]: 99%
percent of control binding at 10 µM [3, 15]: 85%
percent of control binding at 10 µM [4, 15]: 100%
percent of control binding at 10 µM [5, 15]: 88%
percent of control binding at 10 µM [6, 15]: 79%
percent of control binding at 10 µM [7, 15]: 78%
percent of control binding at 10 µM [8, 15]: 77%
percent of control binding at 10 µM [9, 15]: 90%
percent of control binding at 10 µM [10, 15]: 96%
percent of control binding at 10 µM [11, 15]: 75%
percent of control binding at 10 µM [12, 15]: 91%
SMILES: O=C(c1cc(Cc2n[nH]c(=O)c3ccccc23)ccc1F)N1CCN(C(=O)C2CC2)CC1 [Olaparib]

percent of control binding at 10 µM [1, 16]: 73%
percent of control binding at 10 µM [2, 16]: 100%
percent of control binding at 10 µM [3, 16]: 100%
percent of control binding at 10 µM [4, 16]: 99%
percent of control binding at 10 µM [5, 16]: 91%
percent of control binding at 10 µM [6, 16]: 100%
percent of control binding at 10 µM [7, 16]: 93%
percent of control binding at 10 µM [8, 16]: 51%
percent of control binding at 10 µM [9, 16]: 94%
percent of control binding at 10 µM [10, 16]: 100%
percent of control binding at 10 µM [11, 16]: 99%
percent of control binding at 10 µM [12, 16]: 100%
SMILES: Cn1ncnc1[C@H]1c2n[nH]c(=O)c3cc(F)cc(c23)N[C@@H]1c1ccc(F)cc1 [Talazoparib]
